Experimental data published in ChEMBL document CHEMBL1150558, “Enantiomeric Composition of Trans-Dihydrodiols Formed from Meso-K-Region Arene Oxides by Microsomal Epoxide Hydrolase” (Bioorg Med Chem Lett, 1992).

Legend:
[1] = target: T1, Epoxide hydrolase 1 (Rattus norvegicus) (UniProt P07687); assay: Percent Enantiomeric composition (R,R) of trans-Dihydrodiol formed by Microsomal Epoxide Hydrolase from rat liver at 50 mM Tris-HCl buffer, pH 8.4 at 37 degrees C
T1 sequence (whole entry): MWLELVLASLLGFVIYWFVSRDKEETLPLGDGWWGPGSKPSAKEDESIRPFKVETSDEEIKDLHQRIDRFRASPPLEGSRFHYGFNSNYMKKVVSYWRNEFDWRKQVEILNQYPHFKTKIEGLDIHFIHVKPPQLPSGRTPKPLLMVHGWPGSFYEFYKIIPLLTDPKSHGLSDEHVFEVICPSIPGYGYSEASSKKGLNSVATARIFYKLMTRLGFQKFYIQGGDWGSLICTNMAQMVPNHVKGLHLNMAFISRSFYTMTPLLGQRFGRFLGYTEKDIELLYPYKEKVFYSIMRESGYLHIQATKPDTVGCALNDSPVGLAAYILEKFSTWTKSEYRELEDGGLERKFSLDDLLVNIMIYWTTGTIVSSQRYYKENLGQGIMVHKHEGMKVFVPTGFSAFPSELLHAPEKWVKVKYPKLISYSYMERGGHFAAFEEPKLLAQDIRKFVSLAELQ

[2] = target: T1, Epoxide hydrolase 1 (Rattus norvegicus); assay: Percent Enantiomeric composition (S,S) of trans-Dihydrodiol formed by Microsomal Epoxide Hydrolase from rat liver at 50 mM Tris-HCl buffer, pH 8.4 at 37 degrees C
[3] = target: Epoxide hydrolase 1 (Oryctolagus cuniculus) (UniProt P04068); assay: Percent Enantiomeric composition (S,S) of trans-Dihydrodiol formed by Microsomal Epoxide Hydrolase from rabbit liver microsomes
Sequence of Epoxide hydrolase 1 (Oryctolagus cuniculus) (P04068 whole entry, looked up): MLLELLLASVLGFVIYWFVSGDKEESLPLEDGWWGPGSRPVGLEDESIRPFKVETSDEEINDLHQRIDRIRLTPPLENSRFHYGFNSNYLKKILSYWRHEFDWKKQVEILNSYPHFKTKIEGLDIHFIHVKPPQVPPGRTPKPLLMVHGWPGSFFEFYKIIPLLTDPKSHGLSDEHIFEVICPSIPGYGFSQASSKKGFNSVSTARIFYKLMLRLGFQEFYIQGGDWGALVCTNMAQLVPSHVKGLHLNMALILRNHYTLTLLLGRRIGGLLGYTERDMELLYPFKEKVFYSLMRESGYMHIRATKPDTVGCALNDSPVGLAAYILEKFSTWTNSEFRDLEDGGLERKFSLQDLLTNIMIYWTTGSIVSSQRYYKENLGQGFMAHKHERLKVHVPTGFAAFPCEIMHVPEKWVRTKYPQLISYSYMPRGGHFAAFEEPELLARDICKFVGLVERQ

[4] = target: Epoxide hydrolase 1 (Oryctolagus cuniculus) (UniProt P04068); assay: Percent Enantiomeric composition (R,R) of trans-Dihydrodiol formed by Microsomal Epoxide Hydrolase from rabbit liver microsomes

| SMILES | Enantiomeric composition [1] | Enantiomeric composition [2] | Enantiomeric composition [3] | Enantiomeric composition [4] |
| --- | --- | --- | --- | --- |
| c1cc2c3c(c1)ccc1cccc(c13)C1OC21 (stereo not drawn) | 86% | 14% | – | – |
| c1ccc2c(c1)c1cccc3c1c1c(cccc21)C1OC31 (stereo not drawn) | 83% | 17% | – | – |
| C1=CC2OC2C=C1 (stereo not drawn) | – | – | 18% | 82% |
| c1ccc2c(c1)-c1ccccc1C1OC21 (stereo not drawn) | 42% | 58% | – | – |
